“Also recorded” adds a separate entry of the source.

In assay [1] the target is T1, GFP-fusion CD163-SRCR5 (GFP-fused SRCR5 domain of porcine CD163, recombinant, expressed in E. coli BL21 (DE3)) (Sus scrofa, UniProt Q2VL90).
T1 construct: GFP and GFP-SRCR2 as controls
The assay can be described thus: Microscale thermophoresis (MST) assay: direct association of compounds with purified GFP-fused CD163-SRCR5. The assay is classed as binding. As to conditions: Monolith NT.115, blue channel, values represent Mean, N=3. The method, then:
The amino acids within the LBP and loop 5-6 regions are underlined. […] B7 was placed in position 1 (Boxes) to show the potential disturbing of both conformations. […] B7 was placed in position 2 (Box) to show the potential disturbing of this conformation. […] Values represent Mean, N=3. […] Values represent Mean, N=3. […] Values represent Mean, N=3.
All chemicals (dissolved in 10 mM in DMSO) were designed and provided by Atomwise, Inc. (CA, USA). Compounds were further diluted in PBS (137 mM NaCl, 2.7 mM KCl, 8 mM Na2HPO4, and 2 mM KH2PO4, pH 7.4, Gibco, MA, USA) to 200 μM as the working solution. Pulmonary alveolar macrophages (PAMs) were harvested from healthy 4-6-month Landrace/Yorkshire pigs. Briefly, pig lungs were removed from euthanized pigs during necropsy and transferred on ice to the lab. 200 mL warm PBS with 200 U/mL penicillin and 200 μg/mL streptomycin was injected into trachea and reached major bronchi of both sides of the lungs. Lungs were then massaged and bronchoalveolar lavage fluid (BALF) was collected. PAMs were harvested from the BALF by centrifugation at 400×g for 15 min and washed in PBS twice. Fresh PAMs were counted and frozen in 90% FBS and 10% DMSO (Sigma-Aldrich, MO) in liquid nitrogen. PAMs were cultivated in RPMI-1640 (Gibco, MA) supplemented with 10% FBS, 2 mM Glutamax, 0.1 mM MEM Non-Essential Amino Acids, 1 mM sodium pyruvate, 100 U/mL penicillin and 100 μg/mL streptomycin, and 0.5 μg/mL Amphotericin B. SRCR5 domain of porcine CD163 receptor was amplified from cDNA of pig cells and inserted into pBiFC-VN155 (I152L). PRRSV GP2a and GP4 were amplified from reverse-transcribed genome of PRRSV VR2332 strain and cloned into pBiFC-VC155 vector as previously described (Huang et al., Virol J 17, 116, 2020). Porcine CD163 was cloned into pMXs vector (Cell Biolabs, CA, USA). For protein purification, […] were cloned into pET28b-GFP (Addgene, MA, USA).
The recombinant pET28b-GFP-SRCR2/SRCR5 constructs were transformed into Escherichia coli strain BL21 (DE3) (New England Biolabs, MA, USA). The transformed clones were cultured at 37° C. in LB broth with […] kanamycin, induced by adding 1 mM isopropyl β-D-1-thiogalactopyranoside at optical density of 0.6-0.8, and then incubated at 37° C. for 3 h. For protein purification, cells were pelleted and resuspended in xTractor Buffer containing DNAse I, lysozyme solution, and Protease Inhibitor Cocktail (Takara Bio USA, Inc., CA). The suspension was sonicated and centrifuged. […]
The purified GFP, GFP-fused SRCR2 or SRCR5 proteins were mixed with serially diluted compounds. The mixtures were loaded to capillaries and the affinity was measured by Monolith NT.115 (NanoTemper Technologies, Inc., CA, USA) at corresponding MST power with the blue channel. […]
On the technique in general: MST reads how a fluorescent partner responds to local heating, with and without ligand.

The target in assay [2] is T2, PPI between PRRSV glycoprotein GP2a and CD163-SRCR5 (Sus scrofa, UniProt Q2VL90).
T2 construct: SRCR5 domain of porcine CD163 receptor was amplified from cDNA of pig cells; expressed in transfected cells; host or cells: HEK293T
T2 sequence (Q2VL90 477-577): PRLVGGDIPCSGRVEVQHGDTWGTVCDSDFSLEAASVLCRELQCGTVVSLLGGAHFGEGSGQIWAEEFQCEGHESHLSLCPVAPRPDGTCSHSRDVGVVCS
The assay can be described thus: BiFC assay GP2a/SRCR5. The assay is classed as cell-based, porcine CD163; PRRSV VR2332. Conditions: 5 μM; for Average GP2a (relative fluorescence intensity, SRCR5/GP2a BiFC): HEK293T, 24 h after transfection, relative to NC (DMSO) = 1.00, n=3. The method, then:
(§1) HEK293T cells were cultivated in 6-well plates in FP medium and transfected with 1 μg XpBiFC-VN155 (I152L)-SRCR5 and 1 μg pBiFC-VC155-GP2/GP4 using Fugene6. After 4 h, cells were digested with 0.05% Typsin-EDTA (ThermoFisher Scientific, MA, USA)) and passaged to 48-well plates which were coated with EmbryoMax 0.1% Gelatin Solution (Sigma-Aldrich, MO, USA) and preloaded with 5 μM B7 analogues. Fluorescence images were taken at 24 h after transfection and fluorescence intensity was measured by image J.

In assay [3] the target is T3, PPI between PRRSV GP4 and CD163-SRCR5 domain (Sus scrofa, UniProt Q2VL90).
T3 construct: SRCR5 domain of porcine CD163 receptor was amplified from cDNA of pig cells; expressed in transfected cells; host or cells: HEK293T
T3 sequence (Q2VL90 477-577): as above
The assay can be described thus: BiFC assay GP4/SRCR5. As to conditions: for Average GP4 (relative fluorescence intensity, SRCR5/GP4 BiFC): 5 μM, HEK293T, 24 h after transfection, relative to NC (DMSO), n=3. The assay is classed as cell-based, porcine CD163; PRRSV VR2332. The method, then: as §1

In assay [4] the test system is PRRSV strains NADC30, VR-2332 and Lelystad. In words: PRRSV infection assay in PAMs, qRT-PCR for PRRSV. It is filed as cell-based. Conditions: for antiviral potency, SAR comparison (in words): qRT-PCR and titration in infected PAMs, compared with B7, B7-A4 or G7; for inhibitory effect against PRRSV infection (in words): 15 μM, PAMs, qRT-PCR. The method, then:
PAMs were cultivated in 12-well plates and infected with PRRSV NADC30 strain or Lelystad strain at MOI=0.05 for 1 h. Cells were then incubated with 15 μM B7 analogues for 24 h at 37° C. RNAs were extracted from the PAMs for quantitative reverse transcription-PCR (qRT-PCR) using RNeasy Mini Kits (Qiagen, MD, USA) and supernatants of cells were collected PRRSV titration assay.
RNAs isolated from infected PAMs were reversely transcribed to cDNA using iScript™ cDNA Synthesis Kit (Bio-Rad Laboratories, CA, USA). Specific qRT-PCR primers for ORF7 gene of PRRSV NADC30 and Lelystad strains, and for porcine GAPDH are shown in the Table S2 qRT-PCR reaction was conducted with SYBR Green Supermix (Bimake, TX, USA) using the ABI 7500 Fast Platform (Thermo Fisher Scientific, MA, USA). GAPDH served as the house keeping gene for normalization.
A general note: Real-time PCR tracks product formation cycle by cycle.

T1 sequence (Q2VL90 477-577 limits assumed): as the sequence (Q2VL90 477-577) above

The term Kd denotes the concentration at which binding is half-saturated. Turning to `Cc1ccc(S(=O)(=O)Nc2nc3ccccc3nc2Nc2cccc(S(=O)(=O)N3CCCCC3)c2)cc1` [Compound B7-A4], the Kd in assay [1] was 22.9 µM.
On to `Cc1cccc(S(=O)(=O)Nc2nc3ccccc3nc2Nc2cccc(F)c2)c1` [C10], for which the “Average GP2a (relative fluorescence intensity, SRCR5/GP2a BiFC)” value in assay [2] was determined as 0.33. In addition, the “Average GP4 (relative fluorescence intensity, SRCR5/GP4 BiFC)” value in assay [3] worked out at 0.63.
As for `Cc1cccc(S(=O)(=O)Nc2nc3ccccc3nc2Nc2cccc(S(=O)(=O)N3CCCCC3)c2)c1` [E10], in assay [2], the “Average GP2a (relative fluorescence intensity, SRCR5/GP2a BiFC)” value amounted to 0.06. Besides, in assay [3], the “Average GP4 (relative fluorescence intensity, SRCR5/GP4 BiFC)” value turned out to be 0.06. The “antiviral potency, SAR comparison (in words)” value (shortened to “antiviral potency”) in assay [4] is “no change in antiviral potency”.
On to `Cc1cc(F)ccc1S(=O)(=O)Nc1nc2ccccc2nc1Nc1cccc(Cl)c1Cl` [F12], for which the “Average GP2a (relative fluorescence intensity, SRCR5/GP2a BiFC)” value in assay [2] is 0.31. Besides, in assay [2] (pH 6.0), the “inhibition of the PPI between SRCR5-VN and GP2a-VC at pH 6.0 (in words)” value is reported as “inhibit the PPI”. In assay [3], the “interference with the PPI between GP4/SRCR5 (in words)” value is reported as “does not effectively interfere” and the “Average GP4 (relative fluorescence intensity, SRCR5/GP4 BiFC)” value amounted to 0.63. In assay [4], the “inhibitory effect against PRRSV infection (in words)” value (“inhibitory effect” for short) is reported as “strong” and the “antiviral potency” value is “significantly increased antiviral effect; also recorded: antiviral potency nearly identical to B7”.
For the compound `Cc1ccc(S(=O)(=O)Nc2nc3ccccc3nc2Nc2cccc(S(=O)(=O)N3CCCC3)c2)cc1` [A7], the “Average GP2a (relative fluorescence intensity, SRCR5/GP2a BiFC)” value in assay [2] was determined as 0.07. Besides, the “Average GP4 (relative fluorescence intensity, SRCR5/GP4 BiFC)” value in assay [3] stood at 0.53. Further, in assay [4], the “inhibitory effect” value was “strong” and the “antiviral potency” value was “significant drop of its antiviral potency”.
With `Cc1ccc(Nc2nc3ccccc3nc2NS(=O)(=O)c2ccc(F)cc2C)cc1` [H1], the “Average GP2a (relative fluorescence intensity, SRCR5/GP2a BiFC)” value in assay [2] is 0.24. Besides, the “Average GP4 (relative fluorescence intensity, SRCR5/GP4 BiFC)” value in assay [3] worked out at 0.94.
Turning to `COc1ccc(Nc2nc3ccccc3nc2NS(=O)(=O)c2ccc(F)cc2C)cc1Cl` [A3], in assay [2], the “Average GP2a (relative fluorescence intensity, SRCR5/GP2a BiFC)” value is given as 0.06. Also, in assay [3], the “Average GP4 (relative fluorescence intensity, SRCR5/GP4 BiFC)” value was 0.43. Also, in assay [4], the “inhibitory effect” value is on record as “mild” and the “antiviral potency” value is given as “significantly increased antiviral effect”.
As to `COc1ccc(NS(=O)(=O)c2cccc(Nc3nc4ccccc4nc3NS(=O)(=O)c3ccc(F)cc3C)c2)cc1` [E3], the “Average GP2a (relative fluorescence intensity, SRCR5/GP2a BiFC)” value in assay [2] is on record as 0.10. Moreover, in assay [3], the “Average GP4 (relative fluorescence intensity, SRCR5/GP4 BiFC)” value is 0.59. Further, in assay [4], the “inhibitory effect” value was “low activity” and the “antiviral potency” value is listed as “near complete loss of antiviral-potency”.
Turning to `COc1ccc(NS(=O)(=O)c2cccc(Nc3nc4ccccc4nc3NS(=O)(=O)c3ccc(F)cc3C)c2)cc1` [Compound E3], in assay [1], the dissociation constant Kd stood at 330 µM.
For `COc1ccc(Nc2nc3ccccc3nc2NS(=O)(=O)c2ccc(F)cc2C)cc1` [A1], the “Average GP2a (relative fluorescence intensity, SRCR5/GP2a BiFC)” value in assay [2] was 0.63. The “Average GP4 (relative fluorescence intensity, SRCR5/GP4 BiFC)” value in assay [3] was 0.89.
As for `O=S(=O)(Nc1nc2ccccc2nc1Nc1cccc(S(=O)(=O)N2CCCC2)c1)c1ccccc1` [C6], in assay [2], the “Average GP2a (relative fluorescence intensity, SRCR5/GP2a BiFC)” value amounted to 0.19. Also, the “Average GP4 (relative fluorescence intensity, SRCR5/GP4 BiFC)” value in assay [3] is reported as 0.34. Besides, in assay [4], the “inhibitory effect” value was “mild”.
As for `COc1ccccc1NS(=O)(=O)c1cccc(Nc2nc3ccccc3nc2NS(=O)(=O)c2ccc(F)cc2C)c1` [F9], the “Average GP2a (relative fluorescence intensity, SRCR5/GP2a BiFC)” value in assay [2] was 0.03. In assay [3], the “Average GP4 (relative fluorescence intensity, SRCR5/GP4 BiFC)” value is 0.07. In addition, in assay [4], the “antiviral potency” value was “did not change at all”.
For the compound `Cc1cccc(S(=O)(=O)Nc2nc3ccccc3nc2Nc2cccc(S(=O)(=O)N3CCCCC3)c2)c1` [Compound E10], the Kd in assay [1] is 38 µM.
As for `O=S(=O)(Nc1nc2ccccc2nc1Nc1ccc(Cl)c(S(=O)(=O)N2CCOCC2)c1)c1ccccc1` [G10], the “Average GP2a (relative fluorescence intensity, SRCR5/GP2a BiFC)” value in assay [2] stood at 0.13. The “Average GP4 (relative fluorescence intensity, SRCR5/GP4 BiFC)” value in assay [3] came out at 0.80. Further, the “antiviral potency” value in assay [4] was “mildly but significantly decreased”.
Regarding `O=S(=O)(Nc1nc2ccccc2nc1Nc1cccc(S(=O)(=O)N2CCCCC2)c1)c1ccccc1` [G4], the “Average GP2a (relative fluorescence intensity, SRCR5/GP2a BiFC)” value in assay [2] worked out at 0.04. Moreover, the “Average GP4 (relative fluorescence intensity, SRCR5/GP4 BiFC)” value in assay [3] was 0.06. Further, the “antiviral potency” value in assay [4] was “significantly decreased its antiviral potency”.
Take `Cc1ccccc1S(=O)(=O)Nc1nc2ccccc2nc1Nc1ccc(S(=O)(=O)N2CCOCC2)cc1` [D2]: the “Average GP2a (relative fluorescence intensity, SRCR5/GP2a BiFC)” value in assay [2] was 0.07. Also, the “Average GP4 (relative fluorescence intensity, SRCR5/GP4 BiFC)” value in assay [3] was found to be 0.23. Also, in assay [4], the “antiviral potency” value is “mildly but significantly decreased”.
The corresponding values for `Cc1cc(F)ccc1S(=O)(=O)Nc1nc2ccccc2nc1Nc1ccccc1` [G7] are 0.15, 0.71 and “much lower antiviral effect compared with B7; also recorded: obvious loss of the antiviral activity compared with B7”.
As to `Cc1ccccc1Nc1nc2ccccc2nc1NS(=O)(=O)c1ccc(F)cc1C` [F7], the “Average GP2a (relative fluorescence intensity, SRCR5/GP2a BiFC)” value in assay [2] stood at 0.30. In assay [3], the “Average GP4 (relative fluorescence intensity, SRCR5/GP4 BiFC)” value is given as 0.96.
Regarding `Cc1cc(F)ccc1S(=O)(=O)Nc1nc2ccccc2nc1Nc1cccc(Cl)c1` [E7], in assay [2], the “Average GP2a (relative fluorescence intensity, SRCR5/GP2a BiFC)” value amounted to 0.10. Further, the “Average GP4 (relative fluorescence intensity, SRCR5/GP4 BiFC)” value in assay [3] is recorded as 0.69.
For `Cc1cc(F)ccc1S(=O)(=O)Nc1nc2ccccc2nc1Nc1cccc(Cl)c1C` [E4], the “Average GP2a (relative fluorescence intensity, SRCR5/GP2a BiFC)” value in assay [2] was 0.12. In addition, the “Average GP4 (relative fluorescence intensity, SRCR5/GP4 BiFC)” value in assay [3] was found to be 0.74.

For the origin of these results see patent US20240342167A1, “INHIBITORS OF PORCINE REPRODUCTIVE AND RESPIRATORY SYNDROME VIRUS” (University of Connecticut, priority 2023, published 2024).
